Test results from US20240239794A1, “PKC-Theta Modulators” (Exscientia AI Limited, priority 2021, published 2024).
Structures can show the parent of a compound that is named as a salt. Where two headings read alike, the source gives them in different places.

How the values were obtained:
[1] = molecular target: Recombinant human PKC-theta (His-tagged 362-706) (Homo sapiens (Human), UniProt Q04759); assay: PKC-theta inhibition assay (HTRF KinEASE kit); type: biochemical; settings: ATP 6.5 μM
How it was run: (§1)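 Ten semi-log compound doses were fitted by 4-parameter logistic to HTRF acceptor/donor ratios for IC50. Reactions at 25° C used 6.5 μM ATP and 525 nM STK substrate for 30 min (PKC-theta) or 5.7 μM ATP and 243 nM substrate for 20 min (PKC-delta), after 30 min on-ice enzyme–compound preincubation at 10 ng/ml enzyme.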

[2] = test system: IL-2 secretion by human effector memory T cells (TEM); assay: Effector memory T cells IL-2 release assay; type: cell-based; settings: T-cell, 24 h
How it was run: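 IC50 values come from a 4-parameter fit of HTRF-measured IL-2 against 10 semi-log doses, relative to maximal IL-2 in each experiment. Donor-derived CD4+ TEM cells were bead-stimulated (anti-CD3/CD28) with compound for 24 h at 37° C; cytotoxicity was excluded by viability dye staining.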

[3] = molecular target: Recombinant human PKC-delta (His-tagged 345-676) (Homo sapiens (Human), UniProt Q05655); assay: PKC-delta inhibition assay (HTRF KinEASE kit), PKC-theta/PKC-delta selectivity; type: biochemical; settings: ratio; for PKC-theta/PKC-delta selectivity: PKC-theta over PKC-delta, HTRF assays; for PKC-theta/PKC-delta selectivity (binned): binned A to G
Sequence of Recombinant human PKC-delta (His-tagged 345-676) (Q05655 345-676): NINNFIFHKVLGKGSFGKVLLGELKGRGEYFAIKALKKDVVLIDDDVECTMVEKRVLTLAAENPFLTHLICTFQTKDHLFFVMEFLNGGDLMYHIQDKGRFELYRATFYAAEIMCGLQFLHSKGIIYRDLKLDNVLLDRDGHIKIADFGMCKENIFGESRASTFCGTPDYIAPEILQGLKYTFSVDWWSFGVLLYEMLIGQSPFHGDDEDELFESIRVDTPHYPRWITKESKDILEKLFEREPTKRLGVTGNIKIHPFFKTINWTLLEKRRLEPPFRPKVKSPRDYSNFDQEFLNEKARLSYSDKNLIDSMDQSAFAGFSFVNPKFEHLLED
How it was run: as §1

[4] = binned A to H, read-out: PKC-theta HTRF pIC50 (binned) (converted)
[5] = read-out: PKC-theta HTRF pIC50 (converted)
[6] = human CD4+ TEM cells, CD3/CD28 bead stimulation, binned A to G, read-out: PKC-theta IL2 pIC50 (binned) (converted)
[7] = human CD4+ TEM cells, CD3/CD28 bead stimulation, read-out: PKC-theta IL2 pIC50 (converted)
[8] = Homo sapiens, read-out: PKC-theta IL2 pIC50 (binned) (converted)
[9] = Homo sapiens, read-out: PKC-theta IL2 pIC50 (converted)

Sequence of Recombinant human PKC-theta (His-tagged 362-706) (Q04759 362-706): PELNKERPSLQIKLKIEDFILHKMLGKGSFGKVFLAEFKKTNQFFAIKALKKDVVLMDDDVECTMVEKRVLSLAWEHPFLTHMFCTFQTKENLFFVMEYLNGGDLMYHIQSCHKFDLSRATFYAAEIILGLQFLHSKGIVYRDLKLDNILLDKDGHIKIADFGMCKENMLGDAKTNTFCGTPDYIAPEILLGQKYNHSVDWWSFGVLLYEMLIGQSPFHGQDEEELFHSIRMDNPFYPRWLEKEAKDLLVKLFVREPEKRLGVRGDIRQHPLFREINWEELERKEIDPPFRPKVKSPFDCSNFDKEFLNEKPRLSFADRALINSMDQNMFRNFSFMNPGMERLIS

Row | SMILES | IC50 [1, 4] [µM] | IC50 [1, 5] [µM] | IC50 [2, 6] [µM] | IC50 [2, 7] [µM] | PKC-theta/PKC-delta selectivity [3] | PKC-theta/PKC-delta selectivity (binned) [3] | PKC-theta HTRF pIC50 [1] | IC50 [2, 8] [µM] | IC50 [2, 9] [µM]
1 | CC[C@]1(C)C(=O)Nc2nccc(-c3nn([C@H]4CCNC[C@H]4F)c4ccc(F)cc34)c21 (single isomer, unassigned) [Example 100] | 0.00316 to 0.01 | 0.00794 | 0.0316 to 0.1 | 0.1 | 29 | C (C means a ratio of between 20 and 30) |  |  | 
2 | CC[C@]1(C)C(=O)Nc2nccc(-c3nn([C@@H]4CCNC[C@@H]4F)c4cc(F)ccc34)c21 (single isomer, unassigned) [Example 101] | 0.01 to 0.0316 | 0.0251 | 0.316 to 1 | 0.631 | 42 | B (B means a ratio of between 30 and 50) |  |  | 
3 | CC[C@@]1(C)C(=O)Nc2nccc(-c3nn([C@@H]4CCNC[C@@H]4F)c4cc(F)ccc34)c21 (single isomer, unassigned) [Example 103] | 0.001 to 0.00316 | 0.00251 | 0.0316 to 0.1 | 0.0631 | 22 | C (C means a ratio of between 20 and 30) |  |  | 
4 | CC[C@@]1(C)C(=O)Nc2nccc(-c3nn([C@H]4CCNC[C@H]4F)c4cc(F)ccc34)c21 (single isomer, unassigned) [Example 104] | ≤ 0.001 | 0.000794 | 0.01 to 0.0316 | 0.0126 | 17 | D (D means a ratio of between 10 and 20) |  |  | 
5 | CC[C@@]1(C)C(=O)Nc2nccc(-c3nn([C@@H]4CCNC[C@@H]4F)c4ccccc34)c21 (single isomer, unassigned) [Example 105] | 0.01 to 0.0316 | 0.0126 | 0.316 to 1 | 0.398 | 33 | B (B means a ratio of between 30 and 50) |  |  | 
6 | CC[C@]1(C)C(=O)Nc2nccc(-c3nn([C@@H]4CCNC[C@@H]4F)c4ccccc34)c21 (single isomer, unassigned) [Example 106] | ≤ 0.001 | 0.000794 | 0.01 to 0.0316 | 0.0126 | 15 | D (D means a ratio of between 10 and 20) |  |  | 
7 | CC[C@@]1(C)C(=O)Nc2nccc(-c3nn([C@H]4CCNC[C@H]4F)c4ccccc34)c21 (single isomer, unassigned) [Example 107] | 0.01 to 0.0316 | 0.02 | 0.316 to 1 | 0.631 | 23 | C (C means a ratio of between 20 and 30) |  |  | 
8 | CC[C@]1(C)C(=O)Nc2nccc(-c3nn([C@H]4CCNC[C@H]4F)c4ccccc34)c21 (single isomer, unassigned) [Example 108] | 0.001 to 0.00316 | 0.00316 | 0.0316 to 0.1 | 0.0501 | 17 | D (D means a ratio of between 10 and 20) |  |  | 
9 | O=c1[nH]c2nccc(-c3cnn(C4CCNCC4)c3)c2[nH]1 [Example 1] | 0.316 to 1 |  | > 1 | 3.16 | 1 | G (G means a ratio of between 0 and 1) | 6.1 |  | 
10 | Cc1nn(C2CCNCC2)cc1-c1ccnc2[nH]c(=O)[nH]c12 [Example 2] | > 1 |  | > 1 | 10 | 0.2 | G (G means a ratio of between 0 and 1) | 5.1 |  | 
11 | O=c1[nH]c2nccc(-c3ccn(C4CCNCC4)c3)c2[nH]1 [Example 3, 7-[1-(4-piperidyl)pyrrol-3-yl]-1,3-dihydroimidazo[4,5-b]pyridin-2-one; Dihydrochloride] | 0.1 to 0.316 |  |  |  | 1 | F (F means a ratio of between 1 and 5) | 6.7 | > 1 | 6.31
12 | COCc1cc(-c2ccnc3[nH]c(=O)[nH]c23)cn1C1CCNCC1 [Example 4] | > 1 |  | > 1 | 3.98 | 2 | F (F means a ratio of between 1 and 5) | 6.0 |  | 
13 | CC1C(=O)Nc2nccc(-c3ccn(C4CCNCC4)c3)c21 (stereo not drawn) [Example 5] | 0.0316 to 0.1 |  | 0.1 to 0.316 | 0.126 | 1 | F (F means a ratio of between 1 and 5) | 7.1 |  | 
14 | CC1(C)C(=O)Nc2nccc(-c3ccn(C4CCNCC4)c3)c21 [Example 6] | 0.0316 to 0.1 |  | 0.316 to 1 | 0.631 | 3 | F (F means a ratio of between 1 and 5) | 7.4 |  | 
15 | CC1(C)C(=O)Nc2nccc(-c3cn(C4CCNCC4)c4ccccc34)c21 [Example 7, 3,3-dimethyl-4-[1-(4-piperidyl)indol-3-yl]-1H-pyrrolo[2,3-b]pyridin-2-one Dihydrochloride] | 0.0316 to 0.1 |  |  |  | 6 | E (E means a ratio of between 5 and 10) | 7.4 | 0.316 to 1 | 0.501
16 | CC1(C)C(=O)Nc2nccc(-c3ccn(C4CCNCC4)n3)c21 [Example 8, 3,3-dimethyl-4-[1-(4-piperidyl)pyrazol-3-yl]-1H-pyrrolo[2,3-b]pyridin-2-one Dihydrochloride] | 0.00316 to 0.01 |  |  |  | 5 | E (E means a ratio of between 5 and 10) | 8.1 | 0.1 to 0.316 | 0.126
17 | CC1(C)C(=O)Nc2nccc(-c3nn(C4CCNCC4)c4ccccc34)c21 [Example 9] | 0.001 to 0.00316 |  | 0.0316 to 0.1 | 0.0398 | 15 | D (D means a ratio of between 10 and 20) | 8.7 |  | 
18 | CC1(C)C(=O)Nc2nccc(-c3cn(C4CCNC4)c4ccccc34)c21 (stereo not drawn) [Example 10] | 0.0316 to 0.1 |  | 0.316 to 1 | 0.631 | 12 | D (D means a ratio of between 10 and 20) | 7.4 |  | 
19 | CC1(O)C(=O)Nc2nccc(-c3ccn(C4CCNCC4)c3)c21 (stereo not drawn) [Example 11] | 0.0316 to 0.1 |  | > 1 | 1.58 | 4 | F (F means a ratio of between 1 and 5) | 7.2 |  | 
20 | CC1(O)C(=O)Nc2nccc(-c3cn(C4CCNCC4)c4ccccc34)c21 (stereo not drawn) [Example 12] | 0.00316 to 0.01 |  | 0.1 to 0.316 | 0.2 | 11 | D (D means a ratio of between 10 and 20) | 8.1 |  | 
21 | CC1(O)C(=O)Nc2nccc(-c3ccn(C4CCNCC4)n3)c21 (stereo not drawn) [Example 13] | 0.0316 to 0.1 |  | 0.316 to 1 | 0.631 | 4 | F (F means a ratio of between 1 and 5) | 7.4 |  | 
